Results published in US10538487B2, “Sulfonylureas and related compounds and use of same” (priority 2015, dated 2020).

These molecules were tested against NLRP3 inflammasome (Mus musculus, UniProt Q8R4B8) (assay: Inhibition of IL-1β release, NLRP3 inflammasome activation assay in BMDM). Conditions: commercial compounds (Table 9), read-out: BMDM IC50 vs NLRP3.
Chain of NLRP3 inflammasome (Mus musculus, UniProt Q8R4B8) (Q8R4B8 whole entry): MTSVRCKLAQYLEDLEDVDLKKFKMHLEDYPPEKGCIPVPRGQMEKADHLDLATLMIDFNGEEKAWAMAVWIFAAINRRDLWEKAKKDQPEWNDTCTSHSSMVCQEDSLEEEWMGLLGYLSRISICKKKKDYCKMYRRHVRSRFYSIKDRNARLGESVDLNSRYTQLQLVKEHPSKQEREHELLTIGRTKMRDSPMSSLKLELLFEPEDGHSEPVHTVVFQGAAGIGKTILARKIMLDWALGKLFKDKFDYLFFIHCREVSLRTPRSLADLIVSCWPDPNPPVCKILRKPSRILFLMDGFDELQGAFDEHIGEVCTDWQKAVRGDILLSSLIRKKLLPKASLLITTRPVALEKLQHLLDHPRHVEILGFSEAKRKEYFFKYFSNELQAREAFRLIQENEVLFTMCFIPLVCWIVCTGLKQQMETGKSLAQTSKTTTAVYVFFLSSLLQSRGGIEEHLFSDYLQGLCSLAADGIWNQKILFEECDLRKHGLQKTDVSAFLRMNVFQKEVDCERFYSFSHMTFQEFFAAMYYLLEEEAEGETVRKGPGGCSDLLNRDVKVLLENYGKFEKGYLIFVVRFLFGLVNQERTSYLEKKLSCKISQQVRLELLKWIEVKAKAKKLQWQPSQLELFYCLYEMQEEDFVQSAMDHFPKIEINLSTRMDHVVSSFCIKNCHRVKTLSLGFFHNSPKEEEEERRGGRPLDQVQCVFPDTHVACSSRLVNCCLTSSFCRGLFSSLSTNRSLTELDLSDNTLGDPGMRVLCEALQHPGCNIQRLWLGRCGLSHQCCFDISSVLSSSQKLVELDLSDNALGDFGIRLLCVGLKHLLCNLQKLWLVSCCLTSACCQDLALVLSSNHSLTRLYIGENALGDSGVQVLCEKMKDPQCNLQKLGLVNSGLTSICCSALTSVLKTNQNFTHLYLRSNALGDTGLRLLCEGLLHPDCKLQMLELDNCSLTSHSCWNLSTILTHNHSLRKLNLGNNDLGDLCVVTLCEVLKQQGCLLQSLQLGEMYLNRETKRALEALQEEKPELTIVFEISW
Format: cell-based
Procedure: (§1) The following assays can be used to determine inhibitory activity of test compounds on the NLRP3 inflammasome using common stimuli such as adenosine triphosphate, nigericin, LeuLeu-OMe or monosodium urate crystals (MSU).
Mouse bone marrow-derived macrophages (BMDM) were derived from bone marrow progenitors isolated from the femurs and tibias of C57BL/6 mice.
BMDM are seeded at 1×10^5/ml. The following day the overnight medium is replaced and cells are stimulated with Ultrapure lipopolysaccharide from Escherichia coli K12 strain (InvivoGen) for 3 h. Medium is removed and replaced with serum free medium (SFM) containing test compound 30 min prior to NLRP3 stimulation. […] ATP can be sourced from Sigma Aldrich, nigericin and MSU from Invivogen and LeuLeu-Ome from Chem-Impex International.
(§2) For ELISA and cell death assays cells are seeded in 96 well plates. Supernatants are removed and analysed using ELISA kits according to the manufacturer's instructions (DuoSet® R&D Systems, ReadySetGo!® eBioscience, BD OptEIA™, or Perkin Elmer AlphaLISA®). Cell death is assessed by measurement of LDH release relative to a 100% cell lysis control using the CytoTox96® non-radioactive cytotoxicity assay (Promega).
In the case of Cc1cc(C(=O)NCCc2ccc(S(N)(=O)=O)cc2)no1 [Glisoxepide Precursor, reference compound], the IC50 is reported as greater than 10000 µM.

Same assay, conditions: inhibition of IL-1β release, class symbols, read-out: Avg. IL-1β IC50 Murine BMDM
Molecule CC(C)(O)c1coc(S(=O)(=O)NC(=O)Nc2c3c(cc4c2OCC4)OCC3)c1 [4-(2-hydroxypropan-2-yl)-N-((2,3,6,7-tetrahydrobenzo[1,2-b:4,5-b′]difuran-4-yl)carbamoyl)furan-2-sulfonamide] has an IC50 of less than 1 µM.
COc1ccccc1NC(=O)NS(=O)(=O)c1cc(C(C)(C)O)co1 [4-(2-hydroxypropan-2-yl)-N-((2-methoxyphenyl)carbamoyl)furan-2-sulfonamide] was tested, and the IC50 was less than 10 µM.
Molecule CC(C)(O)c1coc(S(=O)(=O)NC(=O)Nc2c3c(cc4c2CCO4)CCC3)c1 [4-(2-hydroxypropan-2-yl)-N-((3,5,6,7-tetrahydro-2H-indeno[5,6-b]furan-4-yl)carbamoyl)furan-2-sulfonamide] has an IC50 of less than 0.1 µM.
Work on CC(C)(O)c1coc(S(=O)(=O)NC(=O)Nc2c3c(cc4c2OCC4)CCC3)c1 [4-(2-hydroxypropan-2-yl)-N-((3,5,6,7-tetrahydro-2H-indeno[5,6-b]furan-8-yl)carbamoyl)furan-2-sulfonamide] yielded an IC50 of less than 0.1 µM.
With O=C(Nc1c2c(cc3c1CCC3)CCC2)NS(=O)(=O)c1cc(C(=O)O)co1 [5-(N-((1,2,3,5,6,7-hexahydro-s-indacen-4-yl)carbamoyl)sulfamoyl)furan-3-carboxylic acid] the IC50 was less than 10 µM.
In the case of CC(C)c1cc(Cl)cc(C(C)C)c1NC(=O)NS(=O)(=O)c1ccc2cc(Cl)ccc2c1 [6-chloro-N-((4-chloro-2,6-diisopropylphenyl)carbamoyl)naphthalene-2-sulfonamide], the IC50 is reported as less than 0.1 µM.
In the case of Cc1oc(S(=O)(=O)NC(=O)Nc2c3c(cc4c2CCC4)CCC3)cc1C(C)(C)O [N-((1,2,3,5,6,7-hexahydro-s-indacen-4-yl)carbamoyl)-4-(2-hydroxypropan-2-yl)-5-methylfuran-2-sulfonamide], the IC50 is reported as less than 0.1 µM.
O=C(Nc1c2c(cc3c1CCC3)CCC2)NS(=O)(=O)c1ccc([N+](=O)[O-])cc1 [N-((1,2,3,5,6,7-hexahydro-s-indacen-4-yl)carbamoyl)-4-nitrobenzenesulfonamide] was tested, and the IC50 was less than 0.1 µM.
O=C(Nc1c2c(cc3c1CCC3)CCC2)NS(=O)(=O)c1nnc[nH]1 [N-((1,2,3,5,6,7-hexahydro-s-indacen-4-yl)carbamoyl)-4H-1,2,4-triazole-3-sulfonamide] showed an IC50 of less than 0.1 µM.
O=C(Nc1c2c(cc3c1CCC3)CCC2)NS(=O)(=O)c1cn2c(n1)CCC2 [N-((1,2,3,5,6,7-hexahydro-s-indacen-4-yl)carbamoyl)-6,7-dihydro-5H-pyrrolo[1,2-a]imidazole-2-sulfonamide] gave an IC50 of less than 1 µM.
CC(C)(O)c1coc(S(=O)(=O)NC(=O)Nc2cccc3c2OCCO3)c1 [N-((2,3-dihydrobenzo[b][1,4]dioxin-5-yl)carbamoyl)-4-(2-hydroxypropan-2-yl)furan-2-sulfonamide] showed an IC50 of less than 10 µM.

Same assay, conditions: inhibition of IL-1β release, numeric bounds, read-out: Avg. IL-1β IC50 Murine BMDM
Molecule CC(C)n1ccc(S(=O)(=O)NC(=O)Nc2c(C(=O)N(C)C)cc(Cl)cc2C2CC2)n1 [5-chloro-3-cyclopropyl-2-(3-((1-isopropyl-1H-pyrazol-3-yl)sulfonyl)ureido)-N,N-dimethylbenzamide] has an IC50 greater than 10 µM.

These molecules were tested against NLRP3 inflammasome (Homo sapiens, UniProt Q96P20) (assay: Inhibition of IL-1β release, NLRP3 inflammasome activation assay in HMDM). Conditions: inhibition of IL-1β release, class symbols, read-out: Avg. IL-1β IC50 HMDM.
Chain of NLRP3 inflammasome (Homo sapiens, UniProt Q96P20) (Q96P20 whole entry): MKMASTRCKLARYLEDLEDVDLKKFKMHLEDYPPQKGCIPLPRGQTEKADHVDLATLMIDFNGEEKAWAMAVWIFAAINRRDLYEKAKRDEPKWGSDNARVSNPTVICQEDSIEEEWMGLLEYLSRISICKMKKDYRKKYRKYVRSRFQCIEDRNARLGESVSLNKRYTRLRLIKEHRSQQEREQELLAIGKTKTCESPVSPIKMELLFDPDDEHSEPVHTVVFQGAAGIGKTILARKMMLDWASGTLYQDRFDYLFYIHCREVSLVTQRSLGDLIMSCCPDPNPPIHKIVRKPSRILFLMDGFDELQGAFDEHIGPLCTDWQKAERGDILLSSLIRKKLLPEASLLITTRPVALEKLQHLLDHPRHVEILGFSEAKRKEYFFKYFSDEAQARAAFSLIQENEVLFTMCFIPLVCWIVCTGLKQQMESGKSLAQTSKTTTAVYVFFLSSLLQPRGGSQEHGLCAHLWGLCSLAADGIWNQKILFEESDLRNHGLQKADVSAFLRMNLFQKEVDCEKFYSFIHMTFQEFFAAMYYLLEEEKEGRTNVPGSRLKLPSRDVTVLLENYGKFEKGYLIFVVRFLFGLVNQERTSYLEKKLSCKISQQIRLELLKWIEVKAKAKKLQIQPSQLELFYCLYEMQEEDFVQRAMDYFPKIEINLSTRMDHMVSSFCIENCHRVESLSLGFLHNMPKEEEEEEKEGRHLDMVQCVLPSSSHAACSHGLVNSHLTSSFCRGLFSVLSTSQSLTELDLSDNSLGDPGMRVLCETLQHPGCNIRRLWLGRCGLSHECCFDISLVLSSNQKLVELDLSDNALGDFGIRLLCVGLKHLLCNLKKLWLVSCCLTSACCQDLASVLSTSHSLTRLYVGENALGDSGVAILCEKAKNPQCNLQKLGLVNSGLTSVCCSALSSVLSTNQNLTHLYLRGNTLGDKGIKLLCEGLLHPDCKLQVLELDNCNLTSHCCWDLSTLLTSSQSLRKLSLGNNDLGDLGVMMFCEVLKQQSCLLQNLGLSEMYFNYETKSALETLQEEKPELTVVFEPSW
Format: cell-based
Procedure: as §1
To generate HMDM, human monocytes are isolated from buffy coat blood using Ficoll-Plaque Plus (GE Healthcare) and density centrifugation. CD14^+ cell selection is performed using MACS magnetic beads (Miltenyl Biotec).
HMDM are seeded at 1×10^5/ml. […] Medium is removed and replaced with serum free medium (SFM) containing test compound 30 min prior to NLRP3 stimulation. […] ATP can be sourced from Sigma Aldrich, nigericin and MSU from Invivogen and LeuLeu-Ome from Chem-Impex International.
as §2
CC(C)c1cc(Cl)cc(C(C)C)c1NC(=O)NS(=O)(=O)c1cc(C(C)(C)O)co1 [sodium ((4-chloro-2,6-diisopropylphenyl)carbamoyl)((4-(2-hydroxypropan-2-yl)furan-2-yl)sulfonyl)amide] gave an IC50 of less than 0.1 µM.
Molecule CC(C)c1cc(Cl)cc(C(C)C)c1NC(=O)NS(=O)(=O)c1cc(C(C)(C)O)n(C)n1 [sodium ((4-chloro-2,6-diisopropylphenyl)carbamoyl)((5-(2-hydroxypropan-2-yl)-1-methyl-1H-pyrazol-3-yl)sulfonyl)amide] has an IC50 of less than 0.1 µM.
CC(C)c1cc(Cl)cc(C(C)C)c1NC(=O)NS(=O)(=O)c1cc(C(C)(C)O)n(-c2ccccc2)n1 [sodium ((4-chloro-2,6-diisopropylphenyl)carbamoyl)((5-(2-hydroxypropan-2-yl)-1-phenyl-1H-pyrazol-3-yl)sulfonyl)amide] was tested, and the IC50 was less than 0.1 µM.
